{
  "source": "ChEMBL document CHEMBL4270663",
  "about": "“6-Benzhydryl-4-amino-quinolin-2-ones as Potent Cannabinoid Type 1 (CB1) Receptor Inverse Agonists and Chemical Modifications for Peripheral Selectivity” (J Med Chem, 2018)",
  "key": {"[1]": {"tested_on": "Mus musculus", "assay": "Antiobesity activity in diet induced obese C57BL/6J mouse model assessed as decrease in food intake at 30 mg/kg administered as daily dose measured every day for 5 days", "type": "functional, organism-based"}, "[2]": {"assay": "Metabolic stability in rat liver microsomes assessed as parent compound remaining at 1 uM after 10 mins in presence of NADPH", "type": "ADME, microsome", "conditions": "read-out: Stability"}, "[3]": {"assay": "Drug uptake in plasma of diet-induced obese C57BL/6J mouse model at 1 mg/kg, po administered as daily dose measured at 2 hrs post last dose on day 22", "type": "ADME, organism-based"}, "[4]": {"assay": "Drug uptake in plasma of MDR1a knockout CF-1 mouse at 20 mg/kg, po measured at 2 hrs post last dose on day 1", "type": "ADME, organism-based"}, "[5]": {"assay": "Half life in C57BL/6J mouse at 5 mg/kg, iv by LC-MS/MS analysis", "type": "ADME, organism-based", "conditions": "in vivo"}, "[6]": {"assay": "Drug uptake in C57BL/6J mouse brain at 20 mg/kg, po measured after 4 hrs", "type": "ADME, organism-based", "conditions": "in vivo"}, "[7]": {"assay": "Ratio of drug level in brain to plasma of wild type CF-1 mouse at 20 mg/kg, po", "type": "ADME, organism-based", "conditions": "read-out: BPR"}, "[8]": {"tested_on": "Mus musculus", "assay": "Antiobesity activity in diet induced obese C57BL/6J mouse model assessed as decrease in body weight at 3 mg/kg, po administered as daily dose measured every day for 5 days and continuing every other day till day 8 and 15", "type": "functional, organism-based"}, "[9]": {"assay": "Drug uptake in C57BL/6J mouse brain at 20 mg/kg, po measured after 1 hr", "type": "ADME, organism-based", "conditions": "in vivo"}, "[10]": {"assay": "Ratio of drug level in C57BL/6J mouse brain to plasma at 20 mg/kg, po measured after 1 hr", "type": "ADME, organism-based", "conditions": "read-out: BPR"}, "[11]": {"assay": "Ratio of drug level in brain to plasma of diet-induced obese C57BL/6J mouse model at 10 mg/kg, po administered as daily dose measured at 2 hrs post last dose on day 23", "type": "ADME, organism-based", "conditions": "read-out: BPR"}, "[12]": {"assay": "Ratio of drug level in brain to plasma of MDR1a knockout CF-1 mouse at 20 mg/kg, po", "type": "ADME, organism-based", "conditions": "read-out: BPR"}, "[13]": {"assay": "Ratio of drug level in brain to plasma of diet-induced obese C57BL/6J mouse model at 10 mg/kg, po administered as daily dose measured at 2 hrs post last dose on day 1", "type": "ADME, organism-based", "conditions": "read-out: BPR"}, "[14]": {"assay": "AUClast in C57BL/6J mouse at 20 mg/kg, po administered via gavage by LC-MS/MS analysis", "type": "ADME, organism-based", "conditions": "in vivo"}, "[15]": {"assay": "Drug uptake in brain of diet-induced obese C57BL/6J mouse model at 1 mg/kg, po administered as daily dose measured at 2 hrs post last dose on day 2", "type": "ADME, organism-based", "conditions": "in vivo"}, "[16]": {"target": "Cytochrome P450 3A4 (Homo sapiens, UniProt P08684)", "sequence (P08684 whole entry)": "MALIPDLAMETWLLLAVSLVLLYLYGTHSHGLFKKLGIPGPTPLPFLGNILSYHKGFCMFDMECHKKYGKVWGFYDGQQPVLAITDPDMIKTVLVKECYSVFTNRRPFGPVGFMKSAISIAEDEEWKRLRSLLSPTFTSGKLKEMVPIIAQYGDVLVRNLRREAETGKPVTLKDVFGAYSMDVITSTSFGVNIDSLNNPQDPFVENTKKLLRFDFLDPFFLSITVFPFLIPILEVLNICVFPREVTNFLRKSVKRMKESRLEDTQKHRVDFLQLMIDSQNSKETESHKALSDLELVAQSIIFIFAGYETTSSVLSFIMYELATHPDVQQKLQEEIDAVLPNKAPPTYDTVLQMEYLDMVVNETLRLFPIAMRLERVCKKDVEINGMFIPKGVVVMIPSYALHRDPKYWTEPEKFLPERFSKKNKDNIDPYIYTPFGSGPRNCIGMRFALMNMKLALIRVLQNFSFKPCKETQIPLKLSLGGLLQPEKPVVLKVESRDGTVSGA", "assay": "Inhibition of CYP3A4 in human liver microsomes using midazolam/testosterone as substrate after 10 to 30 mins by LC/MS analysis", "type": "ADME"}, "[17]": {"assay": "Volume of distribution at steady state in C57BL/6J mouse at 5 mg/kg, iv or 20 mg/kg, po administered via gavage by LC-MS/MS analysis", "type": "ADME, organism-based", "conditions": "in vivo, read-out: Vdss"}, "[18]": {"assay": "Drug uptake in brain of diet-induced obese C57BL/6J mouse model at 3 mg/kg, po administered as daily dose measured at 2 hrs post last dose on day 2", "type": "ADME, organism-based", "conditions": "in vivo"}, "[19]": {"tested_on": "Mus musculus", "assay": "Antiobesity activity in diet induced obese C57BL/6J mouse model assessed as decrease in body weight at 3 to 10 mg/kg, po administered as daily dose measured every day for 5 days and continuing every other day till day 17", "type": "functional, organism-based"}, "[20]": {"assay": "Drug uptake in plasma of diet-induced obese C57BL/6J mouse model at 3 mg/kg, po administered as daily dose measured at 2 hrs post last dose on day 22", "type": "ADME, organism-based"}, "[21]": {"assay": "Drug uptake in brain of diet-induced obese C57BL/6J mouse model at 3 mg/kg, po administered as daily dose measured at 2 hrs post last dose on day 23", "type": "ADME, organism-based", "conditions": "in vivo"}, "[22]": {"assay": "Drug uptake in plasma of diet-induced obese C57BL/6J mouse model at 30 mg/kg administered as daily dose measured at 2 hrs post last dose on day 5", "type": "ADME, organism-based"}, "[23]": {"target": "T1, Cannabinoid receptor 1 (Homo sapiens, UniProt P21554)", "T1 sequence (P21554 whole entry)": "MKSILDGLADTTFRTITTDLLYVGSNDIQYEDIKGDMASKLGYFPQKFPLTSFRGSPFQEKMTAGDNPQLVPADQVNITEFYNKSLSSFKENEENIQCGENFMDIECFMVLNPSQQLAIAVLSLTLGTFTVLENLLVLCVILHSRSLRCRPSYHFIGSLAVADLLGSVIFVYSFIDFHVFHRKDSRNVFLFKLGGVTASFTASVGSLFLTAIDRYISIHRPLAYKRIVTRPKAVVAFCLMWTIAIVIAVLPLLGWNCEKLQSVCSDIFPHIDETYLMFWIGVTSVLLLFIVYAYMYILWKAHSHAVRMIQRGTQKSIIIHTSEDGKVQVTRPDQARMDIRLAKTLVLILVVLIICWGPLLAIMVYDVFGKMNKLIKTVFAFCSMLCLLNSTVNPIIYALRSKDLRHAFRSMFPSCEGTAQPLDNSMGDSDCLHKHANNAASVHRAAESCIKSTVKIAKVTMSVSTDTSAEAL", "assay": "biochemical", "type": "cell-based, CHO"}, "[24]": {"target": "T1, Cannabinoid receptor 1", "assay": "Potency index, ratio of rimonabant IC50 to compound IC50 for displacement of [3H]-CP-55940 from human CB1 receptor expressed in CHO-K1 cell membranes"}, "[25]": {"target": "Voltage-gated inwardly rectifying potassium channel KCNH2 (Homo sapiens, UniProt Q12809)", "sequence (Q12809 whole entry)": "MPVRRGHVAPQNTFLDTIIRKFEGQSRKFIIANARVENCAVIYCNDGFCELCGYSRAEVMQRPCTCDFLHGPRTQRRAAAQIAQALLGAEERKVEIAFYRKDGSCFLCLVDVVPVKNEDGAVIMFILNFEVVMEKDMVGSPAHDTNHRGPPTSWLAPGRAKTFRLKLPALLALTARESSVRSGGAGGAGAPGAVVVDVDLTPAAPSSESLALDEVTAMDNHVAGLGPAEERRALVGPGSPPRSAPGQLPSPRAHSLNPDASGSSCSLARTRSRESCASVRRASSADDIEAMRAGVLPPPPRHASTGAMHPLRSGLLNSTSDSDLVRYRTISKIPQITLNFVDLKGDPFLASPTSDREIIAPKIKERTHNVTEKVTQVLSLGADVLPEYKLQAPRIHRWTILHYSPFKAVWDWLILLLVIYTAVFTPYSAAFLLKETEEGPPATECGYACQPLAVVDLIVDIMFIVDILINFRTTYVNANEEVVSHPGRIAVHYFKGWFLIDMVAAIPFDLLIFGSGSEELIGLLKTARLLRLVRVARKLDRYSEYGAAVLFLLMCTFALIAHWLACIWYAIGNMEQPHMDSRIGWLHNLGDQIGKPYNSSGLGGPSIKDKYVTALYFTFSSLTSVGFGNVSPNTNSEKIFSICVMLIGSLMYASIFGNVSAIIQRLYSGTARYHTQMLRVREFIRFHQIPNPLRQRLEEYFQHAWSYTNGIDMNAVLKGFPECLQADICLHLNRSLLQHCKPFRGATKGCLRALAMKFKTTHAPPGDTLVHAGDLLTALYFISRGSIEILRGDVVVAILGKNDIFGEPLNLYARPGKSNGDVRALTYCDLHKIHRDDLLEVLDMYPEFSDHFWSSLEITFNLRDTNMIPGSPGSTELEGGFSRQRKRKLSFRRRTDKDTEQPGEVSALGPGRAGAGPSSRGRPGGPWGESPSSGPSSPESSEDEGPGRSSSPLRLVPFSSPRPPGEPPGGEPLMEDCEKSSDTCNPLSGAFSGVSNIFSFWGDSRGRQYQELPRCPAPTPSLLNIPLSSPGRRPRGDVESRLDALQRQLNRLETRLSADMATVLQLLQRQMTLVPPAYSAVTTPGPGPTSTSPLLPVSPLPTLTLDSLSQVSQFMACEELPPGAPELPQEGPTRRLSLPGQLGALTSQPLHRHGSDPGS", "assay": "Inhibition of human ERG"}, "[26]": {"assay": "Drug uptake in C57BL/6J mouse plasma at 20 mg/kg, po measured after 1 hr", "type": "ADME, organism-based"}, "[27]": {"tested_on": "Mus musculus", "assay": "Antiobesity activity in diet induced obese C57BL/6J mouse model assessed as decrease in food intake at 3 to 10 mg/kg, po administered as daily dose measured every day for 5 days and continuing every other day till day 17", "type": "functional, organism-based"}, "[28]": {"tested_on": "Mus musculus", "assay": "Antiobesity activity in diet induced obese C57BL/6J mouse model assessed as decrease in body weight at 30 mg/kg administered as daily dose measured every day for 5 days", "type": "functional, organism-based"}, "[29]": {"assay": "Metabolic stability in human liver microsomes assessed as parent compound remaining at 1 uM after 10 mins in presence of NADPH", "type": "ADME, microsome", "conditions": "read-out: Stability"}, "[30]": {"assay": "Drug uptake in brain of MDR1a knockout CF-1 mouse at 20 mg/kg, po measured at 2 hrs post last dose on day 2", "type": "ADME, organism-based", "conditions": "in vivo"}, "[31]": {"assay": "Drug uptake in plasma of diet-induced obese C57BL/6J mouse model at 3 mg/kg, po administered as daily dose measured at 2 hrs post last dose on day 1", "type": "ADME, organism-based"}, "[32]": {"target": "Cytochrome P450 2D6 (Homo sapiens, UniProt P10635)", "sequence (P10635 whole entry)": "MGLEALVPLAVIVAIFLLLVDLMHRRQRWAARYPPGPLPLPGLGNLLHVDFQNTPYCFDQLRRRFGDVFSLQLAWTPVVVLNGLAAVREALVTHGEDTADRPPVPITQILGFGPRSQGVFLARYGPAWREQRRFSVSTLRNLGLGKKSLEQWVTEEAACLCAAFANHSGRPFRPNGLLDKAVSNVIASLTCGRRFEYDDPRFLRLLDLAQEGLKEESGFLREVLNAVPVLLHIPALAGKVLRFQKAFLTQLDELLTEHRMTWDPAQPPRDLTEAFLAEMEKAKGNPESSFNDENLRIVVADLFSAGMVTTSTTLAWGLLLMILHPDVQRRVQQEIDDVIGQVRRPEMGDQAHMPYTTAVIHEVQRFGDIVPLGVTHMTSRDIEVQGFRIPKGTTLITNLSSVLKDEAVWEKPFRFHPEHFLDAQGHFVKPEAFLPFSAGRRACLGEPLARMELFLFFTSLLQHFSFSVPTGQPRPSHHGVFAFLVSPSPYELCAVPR", "assay": "Inhibition of CYP2D6 in human liver microsomes using dextromethorphan as substrate after 10 to 30 mins by LC/MS analysis", "type": "ADME"}, "[33]": {"target": "Cannabinoid receptor 2 (Homo sapiens, UniProt P34972)", "sequence (P34972 whole entry)": "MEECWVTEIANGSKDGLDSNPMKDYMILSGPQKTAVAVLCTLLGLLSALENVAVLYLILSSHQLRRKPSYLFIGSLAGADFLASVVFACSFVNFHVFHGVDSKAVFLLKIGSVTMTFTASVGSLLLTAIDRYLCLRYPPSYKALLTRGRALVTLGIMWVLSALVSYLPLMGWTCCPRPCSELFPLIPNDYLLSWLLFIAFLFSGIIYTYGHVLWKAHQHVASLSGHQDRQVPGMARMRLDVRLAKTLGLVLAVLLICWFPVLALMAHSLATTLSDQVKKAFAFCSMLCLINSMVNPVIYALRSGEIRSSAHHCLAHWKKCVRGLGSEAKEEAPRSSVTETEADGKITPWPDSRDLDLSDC", "assay": "Inverse agonist activity at human CB2 receptor expressed in HEK293 cells assessed as […] cAMP accumulation after 30 mins by HTRF assay", "type": "functional, cell-based"}, "[34]": {"assay": "Drug uptake in plasma of diet-induced obese C57BL/6J mouse model at 10 mg/kg, po administered as daily dose measured at 2 hrs post last dose on day 22", "type": "ADME, organism-based"}, "[35]": {"assay": "Oral bioavailability in C57BL/6J mouse at 20 mg/kg administered via gavage by LC-MS/MS analysis", "type": "ADME, organism-based", "conditions": "in vivo"}, "[36]": {"tested_on": "Mus musculus", "assay": "Antiobesity activity in diet induced obese C57BL/6J mouse model assessed as decrease in liver fat content at 3 to 10 mg/kg, po administered as daily dose measured at day 26 post last dose", "type": "functional, organism-based"}, "[37]": {"assay": "Ratio of drug level in brain to plasma of diet-induced obese C57BL/6J mouse model at 30 mg/kg administered as daily dose measured at 2 hrs post last dose on day 5", "type": "ADME, organism-based", "conditions": "read-out: BPR"}, "[38]": {"assay": "Clearance in C57BL/6J mouse at 5 mg/kg, iv or 20 mg/kg, po administered via gavage by LC-MS/MS analysis", "type": "ADME, organism-based", "conditions": "in vivo"}, "[39]": {"assay": "Drug uptake in C57BL/6J mouse plasma at 20 mg/kg, po measured after 4 hrs", "type": "ADME, organism-based"}, "[40]": {"assay": "Ratio of drug level in brain to plasma of diet-induced obese C57BL/6J mouse model at 3 mg/kg, po administered as daily dose measured at 2 hrs post last dose on day 23", "type": "ADME, organism-based", "conditions": "read-out: BPR"}},
  "note": "pEC50, pIC50: −log10 of the molar value. Active and inactive are the calls of the source. No cut-off for these calls is given here.",
  "data": [
    {"smiles": "O=c1cc(NC2CCN(S(=O)(=O)C(F)(F)F)CC2)c2cc(C(c3ccc(Cl)cc3)c3ccc(Cl)cc3)ccc2[nH]1", "values": [
      {"measurement": "Activity", "setting": "[1]", "result": "Active"},
      {"measurement": "remaining at 10 min, 1 µM", "setting": "[2]", "result": 100, "unit": "%"},
      {"measurement": "concentration at 2 h", "setting": "[3]", "result": 843, "unit": "nM"},
      {"measurement": "concentration at 2 h", "setting": "[4]", "result": 4950, "unit": "nM"},
      {"measurement": "half-life", "setting": "[5]", "result": 6.97, "unit": "h"},
      {"measurement": "Drug uptake", "setting": "[6]", "result": 0.019, "unit": "nmol/g"},
      {"measurement": "Kp", "setting": "[7]", "result": 0.027},
      {"measurement": "Activity", "setting": "[8]", "result": "Active"},
      {"measurement": "Drug uptake", "setting": "[9]", "result": 0.012, "unit": "nmol/g"},
      {"measurement": "Kp at 1 h", "setting": "[10]", "result": 0.0073},
      {"measurement": "Kp at 2 h", "setting": "[11]", "result": 0.038},
      {"measurement": "Kp", "setting": "[12]", "result": 0.72},
      {"measurement": "Kp at 2 h", "setting": "[13]", "result": 0.026},
      {"measurement": "AUC(0-t)", "setting": "[14]", "result": 28.4, "unit": "µM·h"},
      {"measurement": "Drug uptake", "setting": "[15]", "result": "< 4", "unit": "nmol/g"},
      {"measurement": "pIC50", "setting": "[16]", "result": "< 5.00"},
      {"measurement": "Vd", "setting": "[17]", "result": 0.456, "unit": "L/kg"},
      {"measurement": "Drug uptake", "setting": "[18]", "result": "< 4", "unit": "nmol/g"},
      {"measurement": "Activity", "setting": "[19]", "result": "Active"},
      {"measurement": "concentration at 2 h", "setting": "[20]", "result": 2550, "unit": "nM"},
      {"measurement": "Drug uptake", "setting": "[21]", "result": 0.164, "unit": "nmol/g"},
      {"measurement": "concentration at 2 h", "setting": "[22]", "result": 18500, "unit": "nM"},
      {"measurement": "pIC50", "setting": "[23]", "result": 8.89},
      {"measurement": "Ratio IC50", "setting": "[24]", "result": 6},
      {"measurement": "pIC50", "setting": "[25]", "result": "< 4.30"},
      {"measurement": "concentration at 1 h", "setting": "[26]", "result": 1720, "unit": "nM"},
      {"measurement": "Activity", "setting": "[27]", "result": "Active"},
      {"measurement": "Activity", "setting": "[28]", "result": "Active"},
      {"measurement": "remaining at 10 min, 1 µM", "setting": "[29]", "result": 100, "unit": "%"},
      {"measurement": "Drug uptake", "setting": "[30]", "result": 3.49, "unit": "nmol/g"},
      {"measurement": "concentration at 2 h", "setting": "[31]", "result": 1240, "unit": "nM"},
      {"measurement": "pIC50", "setting": "[32]", "result": "< 5.00"},
      {"measurement": "pEC50", "setting": "[33]", "result": "< 5.00"},
      {"measurement": "concentration at 2 h", "setting": "[34]", "result": 8650, "unit": "nM"},
      {"measurement": "bioavailability", "setting": "[35]", "result": 13, "unit": "%"},
      {"measurement": "Activity", "setting": "[36]", "result": "Active"},
      {"measurement": "Kp at 2 h", "setting": "[37]", "result": 0.024},
      {"measurement": "clearance", "setting": "[38]", "result": 2.21, "unit": "mL/min/kg"},
      {"measurement": "concentration at 4 h", "setting": "[39]", "result": 1940, "unit": "nM"},
      {"measurement": "Kp at 2 h", "setting": "[40]", "result": 0.065}
    ]}
  ]
}
